Source: patent US10329243B2, “Biphenyl derivative and uses thereof” (XI'AN LIBANG PHARMACEUTICAL CO., LTD, priority 2015, dated 2019)

Assays:
Type in all cases: in vivo, SD rats
Settings in all cases: rat, in vivo
SOD [1] = assay: SOD determination, cerebral ischemic reperfusion MCAO model
Experimental: (§1) Rats were intraperitoneally injected with 10% chloral hydrate 350 mg/kg after anesthesia and opened up at the center of the neck in accordance with the Zea Longa modified method. The right common carotid artery was separated, and the right external carotid artery branches was ligated. A small opening was made at the distal end of the external carotid artery, and a previously prepared thread was inserted through the common carotid artery and the external carotid artery bifurcation into the internal carotid artery, till the anterior end of the middle cerebral artery, with an immersed depth of 18 to 19 mm. The thread was then secured, and the wound was sutured layer by layer. After the operation, the rats were placed in a clean incubator to wake up. […] The sham operation group, the ischemic reperfusion group, and the Example groups were prepared strictly according to the requirements of the cerebral ischemic reperfusion model, while in the sham operation group the thread was put only into the external carotid artery. The animals were allowed to eat and drink freely after waking up. After 2 h, the thread was pulled out to achieve reperfusion. The sham operation group, the ischemic reperfusion group, and the Example groups were administered intravenously the aqueous solution of the biphenyl derivatives in PEG400 at 40 mg/kg (40 mg/kg means that 40 mg of the test compound per kg of the body weight of rats) 30 min before reperfusion and 12 h after reperfusion, respectively. The sham operation group and the ischemic reperfusion group were injected with the same amount of blank PEG400 aqueous solution at the same time point.
(§2) 24 hours after reperfusion, 8 rats in each group were sacrificed by decapitation, the brain was removed, rinsed with PBS (pH 7.4) at −20° i for 20 min, evenly sliced (with a thickness of 2 mm), stained in a 2% TTC solution at 37°% in the dark for 30 min, fixed in 10% formalin for 24 h, and photographs were taken to analyze the infarct volume. A mixture of femoral arterial and venous blood was drawn from another 8 rats in each group under anesthesia, placed in a low temperature centrifuge at 4° C., centrifuged at 3500 r/min for 20 min, and the supernatant was stored in a refrigerator at −20° C. ready for SOD and MDA detection. After the blood was drawn, a perfusion needle was insert through the apex to the ascending aorta, and saline at 4° C. was rapid infused until the effluent became clear, followed by 4% paraformaldehyde phosphate buffer perfusion for fixation; the brain was removed by craniotomy, and brain tissues 2 mm in front of and behind the optic chiasma were taken and fixed, dehydrated, rendered transparent, impregnated in wax, and embedded. Brain continuous coronary tissue pathological sections were consecutively cut for later use. The remaining 8 rats in each group were sacrificed, brains were removed, the ischemic brain hemispheres were immediately taken on an ice tray, and 10% brain tissue homogenate was prepared for the detection of IL-1β and TNF-α.
(§3) SOD and MDA were determined strictly in accordance with instructions of the kit.

MDA [2] = assay: MDA determination, permanent cerebral ischemia model
Experimental: as §1, with “the permanent cerebral ischemia model” for “the ischemic reperfusion”, “up.” for “up. After 2 h, the thread was pulled out to achieve reperfusion.”, “before insertion of thread” for “before reperfusion”, “after embolism,” for “after reperfusion,”
as §2, with “the embolism,” for “reperfusion,”, “−20°i” for “−20° i”
as §3

Fas [3] = assay: Fas determination (immunohistochemical method), permanent cerebral ischemia model
Experimental: as §1, with “the permanent cerebral ischemia model” for “the ischemic reperfusion”, “up.” for “up. After 2 h, the thread was pulled out to achieve reperfusion.”, “before insertion of thread” for “before reperfusion”, “after embolism,” for “after reperfusion,”
as §2, with “the embolism,” for “reperfusion,”, “−20°i” for “−20° i”
(§4) The immunohistochemical method was used for determination. Brain tissue paraffin sections were dewaxed into water, washed with 3% H2O2 to eliminate endogenous peroxidase activity, and rinsed with distilled water for 3 times. Sodium citrate buffer was used for antigen heat repairing, and blocking with calf serum was carried out at room temperature for 15 min; a rabbit anti-mouse Fas antibody was added dropwise, allowed to stand at 4°t overnight, biotinylated goat anti-rabbit IgG was added dropwise, and heated in a water bath at 37°a for 20 min. Washing with PBS for 5 min was continuously repeated 4 times, followed by staining with DAB and sufficient washing without counterstaining. The sections were then gradient dehydrated with alcohol, made transparent with toluene, sealed and fixed. Images were captured by a video camera under high-power optical microscope and inputted into the image analysis system for image analysis. […]

Fas [4] = assay: Fas determination (immunohistochemical method), cerebral ischemic reperfusion MCAO model
Experimental: as §1, §2, §4

MDA [5] = assay: MDA determination, cerebral ischemic reperfusion MCAO model
Experimental: as §1, §2, §3

SOD [6] = assay: SOD determination, permanent cerebral ischemia model
Experimental: as §1, with “the permanent cerebral ischemia model” for “the ischemic reperfusion”, “up.” for “up. After 2 h, the thread was pulled out to achieve reperfusion.”, “before insertion of thread” for “before reperfusion”, “after embolism,” for “after reperfusion,”
as §2, with “the embolism,” for “reperfusion,”, “−20°i” for “−20° i”
as §3

Structure (SMILES): CC(C)c1cccc(C(C)C)c1O [Propofol injection, propofol, reference compound]
- SOD ACTIVITY (U/mL) (SOD [1]): 88.25 ± 2.19 U/mL
- MDA CONTENT (MDA [2]): 6.10 ± 0.29 mmol/mL
- Fas average gray value (Fas [3]): 140.51 ± 4.84
- Fas average gray scale (Fas [4]): 142.15 ± 5.71
- MDA CONTENT (MDA [5]): 5.58 ± 0.48 mmol/mL
- SOD ACTIVITY (U/mL) (SOD [6]): 89.13 ± 3.82 U/mL
